Assay results reported in US11882828B2, “Mosquito vector control compositions, methods and products utilizing same” (priority 2015, dated 2024).

Test system: Aedes aegypti (Yellow fever mosquito)
Assay: whole plant or invertebrate
Settings: Aedes aegypti; for pest or weed control at 20 ppm: 1 h, read-out: Knockdown; for mortality at 20 ppm: 48 h
Description: […] Once the deposits were dry, five non-blood fed adult female Aedes aegypti (between two to five days old) were added to each well, and sustained with a 10% sucrose solution in a cotton wool plug. Assessment of the knockdown after 1 hour, and mortality after 48 hours was carried out.
In case of multiple tests, the mean value is reported.

| SMILES | pest or weed control at 20 ppm [%] | mortality at 20 ppm [%] |
| --- | --- | --- |
| CO/C=C(/C(=O)OC)c1ccccc1Oc1nccc(OC(C)(C)C)n1 [N] | 0 | 0 |
| CCC(CC)/C(C)=N/OCc1ccccc1/C(=C\OC)C(=O)OC [L] | 0 | 0 |
| CO/C=C(/C(=O)OC)c1ccccc1CCc1cc(C(F)(F)F)ccn1 [E] | 0 | 0 |
| CO/C=C(/C(=O)OC)c1ccccc1Oc1cc(Cl)ccn1 [I] | 0 | 40 |
| CO/C=C(/C(=O)OC)c1ccccc1Oc1cc(OCC(F)(F)F)ncn1 [J] | 0 | 0 |
| CCc1nnc(Oc2ccccc2/C(=C\OC)C(=O)OC)s1 [AD] | 0 | 0 |
| CO/C=C(/C(=O)OC)c1ccccc1CO/N=C(\C)c1cc(C(F)(F)F)ncn1 [G] | 0 | 0 |
| CCCc1nnc(Oc2ccccc2/C(=C\OC)C(=O)OC)o1 [K] | 0 | 0 |
| CCCCO/N=C(C)/C(C)=N/OCc1ccccc1/C(=C\OC)C(=O)OC [B] | 0 | 0 |
| CO/C=C(/C(=O)OC)c1ccccc1CO/N=C(C)/C=C/c1ccc(Cl)cc1 [R, Enoxastrobin] | 0 | 0 |
| CO/C=C(/C(=O)OC)c1ccccc1Oc1nnc(C(C)(C)C)s1 [Y] | 0 | 0 |
| CO/C=C(/C(=O)OC)c1ccccc1COc1nccnc1C#N [X] | 0 | 0 |
| CCC(C)c1noc(Oc2ccccc2/C(=C\OC)C(=O)OC)n1 (stereo not shown) [Z] | 0 | 0 |
| CO/C=C(/C(=O)OC)c1ccccc1COc1nc2ccc(C(F)(F)F)cc2nc1C(F)(F)F [W] | 0 | 0 |
| CN/C(C)=N/OCc1ccccc1/C(=C\OC)C(=O)OC [Q] | 0 | 0 |
| CO/C=C(/C(=O)OC)c1ccccc1CO/N=C(\C)c1cccc(C(F)(F)F)n1 [H] | 0 | 0 |
| CO/C=C(/C(=O)OC)c1ccccc1Oc1ncc(C(C)(C)C)s1 [AA] | 0 | 0 |
| CO/C=C(/C(=O)OC)c1ccccc1COc1cc(-c2ccc(Cl)cc2)nn1C [S, Pyraoxystrobin] | 0 | 0 |
| CO/C=C(/C(=O)OC)c1ccccc1Oc1ncc([N+](=O)[O-])s1 [D] | 0 | 0 |
| CO/C=C(/C(=O)OC)c1ccccc1COc1nc2cc(C(F)(F)F)ccc2nc1C(F)(F)F [V] | 0 | 0 |
| CO/C=C(/C(=O)OC)c1ccccc1COc1cc(C(F)(F)F)nc(Nc2ccc(Cl)cc2Cl)n1 [U, Pyriminostrobin] | 0 | 0 |
| CO/C=C(/C(=O)OC)c1ccccc1COc1cc(C(F)(F)F)nc(OC(C)C)n1 [C, Fluacrypyrim] | 0 | 0 |
| CO/C=C(/C(=O)OC)c1ccccc1Oc1ncnc(C2CC2)n1 [O] | 0 | 0 |
| CCCCc1c(C)c2ccc(OCc3ccccc3/C(=C\OC)C(=O)OC)cc2oc1=O [T, Coumoxystrobin] | 0 | 0 |
| CO/C=C(/C(=O)OC)c1ccccc1COc1cccc(C(C)(C)C)n1 [P] | 0 | 0 |
| CO/C=C(/C(=O)OC)c1ccccc1Oc1nc(CC(C)(C)C)ns1 [M] | 0 | 0 |
